Source: patent publication US20110177105A1, “Novel Selective Inhibitors of Ubiquitin Specific Protease 7, the Pharmaceutical Compositions Thereof and Their Therapeutic Applications” (priority 2010, published 2011)

target: T1, USP7 (Homo sapiens, UniProt Q93009); assay: USP7 activity assay (Ub-AMC); assay type: biochemical; set-up: Full-length wild-type human USP7 and its catalytic mutant (cysteine 223 replaced by alanine, C223A) were produced as N-terminally His-tagged fusions; His tag (pFastBac-HT) (N); made in house; host or cells: Spodoptera frugiperda Sf9 (or High Five) insect cells, baculovirus; settings: 300 nM Ub-AMC, 100 pM enzyme, 30 min pre-incubation; read-out: USP7 (inhibition of deubiquitinating activity)
T1 sequence (Q93009 whole entry, the tested form may be a part): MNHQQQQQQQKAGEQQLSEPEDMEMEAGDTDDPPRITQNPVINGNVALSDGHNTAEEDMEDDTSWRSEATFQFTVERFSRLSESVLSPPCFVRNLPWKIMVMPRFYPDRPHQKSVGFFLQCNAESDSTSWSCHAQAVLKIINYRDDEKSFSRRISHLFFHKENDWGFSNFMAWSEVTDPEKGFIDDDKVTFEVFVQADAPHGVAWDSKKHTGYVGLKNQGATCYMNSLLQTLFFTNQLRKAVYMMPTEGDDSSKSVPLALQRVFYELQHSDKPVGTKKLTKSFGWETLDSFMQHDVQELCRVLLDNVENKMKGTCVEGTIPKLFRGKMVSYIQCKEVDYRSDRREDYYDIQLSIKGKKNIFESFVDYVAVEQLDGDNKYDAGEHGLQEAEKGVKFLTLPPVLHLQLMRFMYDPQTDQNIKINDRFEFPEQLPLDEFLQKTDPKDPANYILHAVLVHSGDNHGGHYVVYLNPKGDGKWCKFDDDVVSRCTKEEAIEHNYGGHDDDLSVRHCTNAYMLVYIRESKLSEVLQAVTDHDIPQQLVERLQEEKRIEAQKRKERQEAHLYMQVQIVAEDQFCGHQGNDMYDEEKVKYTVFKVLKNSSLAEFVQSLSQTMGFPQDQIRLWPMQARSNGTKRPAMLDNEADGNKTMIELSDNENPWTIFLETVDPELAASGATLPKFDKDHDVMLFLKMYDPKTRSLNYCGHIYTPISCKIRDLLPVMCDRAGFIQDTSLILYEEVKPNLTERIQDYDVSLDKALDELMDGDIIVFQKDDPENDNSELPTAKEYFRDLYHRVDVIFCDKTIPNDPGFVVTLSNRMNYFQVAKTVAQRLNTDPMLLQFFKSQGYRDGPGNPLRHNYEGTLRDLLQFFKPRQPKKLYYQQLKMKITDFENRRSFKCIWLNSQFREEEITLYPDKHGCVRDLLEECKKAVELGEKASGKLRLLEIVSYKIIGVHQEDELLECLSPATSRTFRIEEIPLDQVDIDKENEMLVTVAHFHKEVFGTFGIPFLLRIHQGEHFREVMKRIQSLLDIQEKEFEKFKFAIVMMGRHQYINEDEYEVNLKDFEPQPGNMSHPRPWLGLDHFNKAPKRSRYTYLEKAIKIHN
Source text: The cDNA encoding USP7 was obtained by PCR amplification from placenta mRNA. USP7 cDNA was subcloned by PCR into a baculovirus expression vector (pFastBac-HT; Invitrogen). Full-length wild-type human USP7 and its catalytic mutant (cysteine 223 replaced by alanine, C223A) were produced as N-terminally His-tagged fusions in Spodoptera frugiperda cells (Sf9, Invitrogen), using the Bac-to-Bac Baculovirus system from Invitrogen according to the manufacturer's instructions. pFastBac-HT-B-USP7 was used to transform DH10bac cells (Invitrogen), and blue/white selection was carried out on X-gal/IPTG agar plates. Bacmid DNA was prepared by an alkaline lysis procedure. The integrity of the bacmid minipreps and their orientation were checked by PCR, using generic and specific primers. Sf9 insect cells were cultured in InsectXpress medium (Cambrex) at 27° C. and transfected with the corresponding bacmid, using GeneShuttle 40 (Q-BIOgen). Viruses were recovered in the supernatant 72 h after transfection. Viruses were amplified by infecting insect cells (Sf9 or High Five cells; invitrogen) in 50 ml InsectXpress medium in a 150 cm^2 cell culture flask with 500 μl of the supernatant from transfected Sf9 cells. Following the second round of amplification, infected cells were recovered by rapid SDS lysis, boiled for 5 min at 100° C., sonicated briefly and centrifuged for 20 min at 14,000 g. Expression levels in infected Sf9 cells were compared with those in uninfected cells. Fusion proteins were then allowed to bind to TALON beads (BD Biosciences, TALON metal affinity resin) for 30 min at 4° C. with gentle rocking. Beads were extensively washed (50 mM sodium phosphate buffer pH 7.0, 500 mM NaCl, 10 mM Imidazole, 0.5% Triton X-100 and 10% glycerol) and bound proteins were eluted in wash buffer supplemented with 250 mM Imidazole (Sigma). Eluted fractions were resolved on 4-12% NuPAGE gels (Novex, Invitrogen). Fractions containing high concentrations of purified proteins (purity>95%) were dialyzed (20 mM Tris HCl pH 7.6, 200 mM NaCl, 1 mM DTT, 1 mM EDTA and 10% glycerol) were aliquoted and snap frozen in liquid nitrogen before storage at −80° C.
USP7 was diluted in USP buffer (50 mM Tris HCl; 0.5 mM EDTA; 5 mM DTT; 0.01% Triton X-100; Bovine Serum Albumin 0.05 mg·ml^−1 pH 7.6). Compounds stocks (10 mM) were stored at −20° C. in DMSO. Compounds were tested at different concentrations: from 200 μM to 91 nM.
Reactions were performed as duplicates in Black 384 well plates (small volumes microplates; Greiner; 10 μl final reaction volume). The substrate concentration for USP7 was 300 nM Ub-AMC (Chem. Biol., 2003, 10, p. 837-846) (Boston Biochem). The concentrations of the enzyme (USP7) in specificity assays was 100 pM. The concentrations were determined in order to perform specificity assays under initial velocities at fixed substrate concentration. Compounds were pre-incubated with enzymes for 30 minutes at 25° C. Reactions were initiated by addition of substrate to the plates containing the enzymes (+/−compounds) diluted in assay buffer. Reactions were incubated for 60 minutes at 37° C. Reactions were stopped by adding acetic acid (100 mM final). Readings were performed on a Pherastar Fluorescent Reader (BMG). λ Emission 380 nm; λ Excitation=460 nm. Data (mean values+/−standard deviation) were analyzed as % of control (no compound) and plotted as percentage versus the Log of the compound concentration using GraphPad (Prism). Data were fitted to a sigmoidal model (variable slope).

Point of comparison: CN(CCCNC(=O)c1ccc2c(Cl)c3c(nc2c1)CCCC3)Cc1ccccc1 [Example 14, 9-Chloro-5,6,7,8-tetrahydro-acridine-3-carboxylic acid [3-(benzyl-methyl-amino)-propyl]-amide], IC50 28.1 µM. Against it:
- O=C(c1ccc2c(Cl)c3c(nc2c1)CCCC3)N1CCCCCC1 [Example 12, Azepan-1-yl-(9-chloro-5,6,7,8-tetrahydro-acridin-3-yl)-methanone] — within 1.5-fold, 37.9 µM
- CCCN(CCC)CCCNC(=O)c1ccc2c(Cl)c3c(nc2c1)CCCC3 [Example 6, 9-Chloro-5,6,7,8-tetrahydro-acridine-3-carboxylic acid (3-dipropylamino-propyl)-amide] — within 1.5-fold, 23.8 µM
- Cc1cccc(CN2CCC(CNC(=O)c3ccc4c(Cl)c5c(nc4c3)CCCC5)CC2)c1 [Example 1, 9-Chloro-5,6,7,8-tetrahydro-acridine-3-carboxylic acid [1-(3-methyl-benzyl)-piperidin-4-ylmethyl]-amide] — 3.1-fold lower, 9.1 µM
- CCN1CCCC1CNC(=O)c1ccc2c(Cl)c3c(nc2c1)CCCC3 (stereo not shown) [Example 2, 9-Chloro-5,6,7,8-tetrahydro-acridine-3-carboxylic acid (1-ethyl-pyrrolidin-2-ylmethyl)-amide] — 2.4-fold lower, 11.5 µM
- CCN(CC)CCNC(=O)c1ccc2c(Cl)c3c(nc2c1)CCCC3 [Example 7, 9-Chloro-5,6,7,8-tetrahydro-acridine-3-carboxylic acid (2-diethylamino-ethyl)-amide] — within 1.5-fold, 24.9 µM
- CC1CCCC(C)N1CCCNC(=O)c1ccc2c(Cl)c3c(nc2c1)CCCC3 (stereo not shown) [Example 9, 9-Chloro-5,6,7,8-tetrahydro-acridine-3-carboxylic acid [3-(2,6-dimethyl-piperidin-1-yl)-propyl]-amide] — within 1.5-fold, 28.7 µM
- O=C(NCCCN1CCCC1)c1ccc2c(Cl)c3c(nc2c1)CCCC3 [Example 8, 9-Chloro-5,6,7,8-tetrahydro-acridine-3-carboxylic acid (3-pyrrolidin-1-yl-propyl)-amide] — within 1.5-fold, 25.6 µM
- O=C(c1ccc2c(Cl)c3c(nc2c1)CCCC3)N1CCC(N2CCCCC2)CC1 [Example 16, [1,4′]Bipiperidinyl-1′-yl-(9-chloro-5,6,7,8-tetrahydro-acridin-3-yl)-methanone] — 1.6-fold higher, 46 µM
- CCCCN(CC)CCNC(=O)c1ccc2c(Cl)c3c(nc2c1)CCCC3 [Example 4, 9-Chloro-5,6,7,8-tetrahydro-acridine-3-carboxylic acid [2-(butyl-ethyl-amino)-ethyl]-amide] — within 1.5-fold, 23.5 µM
- CN1CCN(CCCNC(=O)c2ccc3c(Cl)c4c(nc3c2)CCCC4)CC1 [Example 15, 9-Chloro-5,6,7,8-tetrahydro-acridine-3-carboxylic acid [3-(4-methyl-piperazin-1-yl)-propyl]-amide] — 1.5-fold higher, 43 µM
- CCCN(CCC)CCNC(=O)c1ccc2c(Cl)c3c(nc2c1)CCCC3 [Example 3, 9-Chloro-5,6,7,8-tetrahydro-acridine-3-carboxylic acid (2-dipropylamino-ethyl)-amide] — 2.3-fold lower, 12.4 µM
- CCCN1CCN(CCCNC(=O)c2ccc3c(Cl)c4c(nc3c2)CCCC4)CC1 [Example 13, 9-Chloro-5,6,7,8-tetrahydro-acridine-3-carboxylic acid [3-(4-propyl-piperazin-1-yl)-propyl]-amide] — within 1.5-fold, 37.9 µM
- CCN(CCCNC(=O)c1ccc2c(Cl)c3c(nc2c1)CCCC3)Cc1ccccc1 [Example 5, 9-Chloro-5,6,7,8-tetrahydro-acridine-3-carboxylic acid [3-(benzyl-ethyl-amino)-propyl]-amide] — within 1.5-fold, 22.6 µM
- CCN(CC)CCCNC(=O)c1ccc2c(Cl)c3c(nc2c1)CCCC3 [Example 10, 9-Chloro-5,6,7,8-tetrahydro-acridine-3-carboxylic acid (3-diethylamino-propyl)-amide] — within 1.5-fold, 29.2 µM
- CN(C)CCNC(=O)c1ccc2c(Cl)c3c(nc2c1)CCCC3 [Example 11, 9-Chloro-5,6,7,8-tetrahydro-acridine-3-carboxylic acid (2-dimethylamino-ethyl)-amide] — within 1.5-fold, 29.8 µM

target: T1, USP7; assay: HA-Ub-VS labeling of active DUBs in HCT116 cell lysates; assay type: biochemical; set-up: endogenous in cells; host or cells: HCT116 (inducible USP7 shRNA line) cell lysate; settings: different doses (100 μM to 3 μM)
Source text: The C-terminally modified vinyl sulfone derivative of ubiquitin, UbVS, was clearly helpful for a direct visualization of active DUBs in cells. This tool, which binds covalently to the cysteine active site of deubiquitinating enzymes, was successfully applied to discover and characterize novel ubiquitin/ubiquitin-like proteases and to profile active deubiquitinating enzymes in normal, virus-infected, and malignant cells (Borodovsky et al., Chem Biol 2002, 9, 1149-1159, Hemelaar et al., Mol Cell Biol 2004, 24, 84-95, Ovaa et al., Proc Natl Acad Sci USA 2004 101, 2253-2258).
The HA-Ub-VS probe (Hemagglutin tag-Ubiquitin-Vinyl Sulfone) was used in this study to directly visualize the activity of all deubiquitinating enzymes from cell lysates. This tool was used to evaluate the activity/specificity of our small molecule compounds on USP7 relative to all deubiquitinating enzymes active in physiological conditions.
Inducible USP7 shRNA HCT116 cells (previously treated with or without Doxycycline (2 μg/ml) for 4 days) as well as HEK293 cells were harvested and lysed on ice with a non denaturating buffer containing Tris pH 7.4, 50 mM; NaCl, 150 mM; MgCl2, 5 mM; EDTA, 0.5 mM; DTT, 2 mM; ATP, 2 mM; NP40, 0.5% and glycerol, 10%. Samples were incubated at 4° C. for 1 hour and clarified. Proteins were then quantified by Bradford method (Bio-Rad Protein Assay). 25 μg of proteins from native cell lysates were treated with compounds of examples 14 and 5 (from 100 μM to 3 μM) or with NEM (N-Ethylmaleimide, a thiol-reactive compound, 5 mM) for 2 hours at room temperature. The ubiquitin labeling reaction was initiated by the addition of HA-Ub-VS (8 μg/ml) in labeling buffer (Tris pH 7.6, 50 mM; MgCl2, 5 mM; EDTA, 0.5 mM; DTT, 2 mM; ATP, 2 mM; sucrose, 250 mM) and incubated at room temperature for 30 min. Samples were next heated at 100° C. for 10 minutes and briefly sonicated. They were resolved by SDS-polyacrylamide gel electrophoresis (SDS-PAGE), transferred to a nitrocellulose membrane and probed with antibodies against USP7 (Bethyl Lab, A300-034A), HA (BabCO, MMS-101P), and actin (Sigma, A2066). Horseradish peroxidase (HRP)-conjugated anti-mouse (Jackson Laboratories, 115-035-003) or HRP-conjugated anti-rabbit (Cell Signaling, 7074) antibodies were used as secondary antibodies. Signals were detected by enhanced chemiluminescence (ECL; Amersham) according to the reagent manufacturer's instructions.

With CN(CCCNC(=O)c1ccc2c(Cl)c3c(nc2c1)CCCC3)Cc1ccccc1 [Example 14, 9-Chloro-5,6,7,8-tetrahydro-acridine-3-carboxylic acid [3-(benzyl-methyl-amino)-propyl]-amide] the HA-Ub-VS-USP7 protein level was “specific and dose-dependent decrease”.
With CCN(CCCNC(=O)c1ccc2c(Cl)c3c(nc2c1)CCCC3)Cc1ccccc1 [Example 5, 9-Chloro-5,6,7,8-tetrahydro-acridine-3-carboxylic acid [3-(benzyl-ethyl-amino)-propyl]-amide] the HA-Ub-VS-USP7 protein level was “specific and dose-dependent decrease”.

same assay, conditions: fixed dose 50 μM, anti-HA immunoblot

With CN(CCCNC(=O)c1ccc2c(Cl)c3c(nc2c1)CCCC3)Cc1ccccc1 [Example 14, 9-Chloro-5,6,7,8-tetrahydro-acridine-3-carboxylic acid [3-(benzyl-methyl-amino)-propyl]-amide] the “HA-Ub-VS labeled DUB bands after treatment (HA-Ub-VS-USP7 band)” value was “only one band was decreased”.
